For one series, the system named is K562. Nature of the series: Antiproliferative activity against human K562 cells after 72 hrs by MTT assay. Particulars: K562, 72 h. The format is functional, cell-based. Background: Tetrazolium dyes change colour on reduction, which living cells bring about.
A short description of series [1]: Antitumor activity against […] H22 cells xenografted in ICR mouse assessed as reduction tumor weight at 8 mg/kg, iv administered every 2 days for 21 days and measured every 2 days relative to control. The format is functional. For orientation: A xenograft is tissue or cells of one species grown in another, often human tumour cells in immunodeficient mice.
Series [2] can be described thus: Toxicity in ICR mouse xenografted with […] cells assessed as decrease in body weight at 8 mg/kg, iv administered every 2 days for 21 days and measured every 2 days. The format is organism-based. Particulars: in vivo.
Another series relates to KB. The experiment in a line: Antiproliferative activity against human KB cells after 72 hrs by MTT assay. The format is functional, cell-based.
In the next series the test system is HCT-8. The experiment in a line: Antiproliferative activity against human HCT8 cells after 72 hrs by MTT assay. The format is functional, cell-based. The settings on record: HCT-8, 72 h.
A further series deals with MDA-MB-231. The experiment in a line: Antiproliferative activity against human MDA-MB-231 cells after 72 hrs by MTT assay. The format is functional, cell-based. The settings on record: MDA-MB-231, 72 h.
Series [3] is described as follows: Aqueous solubility in pH 7.4 phosphate buffer by HPLC analysis. It counts as physicochemical.
A further series relates to HepG2. The experiment in a line: cells. The settings on record: Homo sapiens, HepG2, 72 h.
The test system of the next series is L02. The experiment in a line: Cytotoxicity against human LO2 cells after 72 hrs by MTT assay. It counts as cell-based. Particulars: L02, 72 h.
Series [4] is described as follows: Selectivity index, ratio of IC50 for human LO2 cells to IC50 for human HepG2 cells. It counts as toxicity. The settings on record: LO2 cells and HepG2 cells, read-out: Ratio IC50.

pIC50: −log10 of the molar value. Values after ≈ are worked out from the molar mass of the structure shown.

Consider `CSc1ccc(/C=C(\C)C(=O)c2cc(C)nc3ccccc23)cc1`, for which, in the series on K562, the pIC50 (commonly −log10 of the IC50, conventionally taken in molar units) is 6.25.
On the same count and under the same terms, in the case of `Cc1cc(C(=O)/C=C/c2ccc3[nH]ccc3c2)c2ccccc2n1` it was under 6.00.
As to `CC(=O)O[C@H]1C(=O)[C@@]2(C)[C@H]([C@H](OC(=O)c3ccccc3)[C@]3(O)C[C@H](OC(=O)[C@H](O)[C@@H](NC(=O)c4ccccc4)c4ccccc4)C(C)=C1C3(C)C)[C@]1(OC(C)=O)CO[C@@H]1C[C@@H]2O` [PACLITAXEL], in [1], the inhibition in vivo (in general, how much of the control response was suppressed) at 8 mg/kg is 90.4%. Further, the Activity result in series [2] is “Toxic”.
For the compound `COc1ccc(/C=C/C(=O)c2cc(OC)c(OC)c(OC)c2)cc1O`, the pIC50 in the series with KB was 6.97; in the series with HCT-8, 6.98; with MDA-MB-231 it was 6.99. Moreover, the solubility (as a rule, the dissolved amount per volume that the medium holds) in series [3] worked out at 3.2 µg/mL (≈ 9.29 µM).
`CCOC(=O)c1cc(C(=O)/C(C)=C/c2ccc(OC)c(O)c2)c2ccccc2n1` had a negative logarithm of the IC50 (pIC50) in the series with K562 of 6.92.
The same measure, in the same setting: the figure for `COc1ccc2c(/C=C/C(=O)c3cc(C)nc4ccccc34)c[nH]c2c1` is under 6.00.
Still for that read-out and setting: the figure for `COc1ccc(/C=C\c2cc(OC)c(OC)c(OC)c2)cc1O` [COMBRETASTATIN A4] is 7.96; for `COc1ccc(CNc2cc(C(=O)/C(C)=C/c3ccc(OC)c(O)c3)c3ccccc3n2)cc1` it is 6.48.
On the same count and under the same terms, the figure for `CCNc1cc(C(=O)/C(C)=C/c2ccc(OC)c(O)c2)c2ccccc2n1` is 7.40.
Take `C/C(=C\c1ccc2[nH]ccc2c1)C(=O)c1cc(C)nc2ccccc12`: the pIC50 in the series on K562 is 6.46; in the series on KB it was 6.37; in the series on HCT-8, 6.38; in the series on MDA-MB-231 it was 6.37; with HepG2, 6.65.
For the compound `COc1ccc(/C=C(\C)C(=O)c2cc(C)nc3ccccc23)cc1F`, in the series on K562, the pIC50 was 7.16.
Consider `C/C(=C\c1ccc2c(ccn2C)c1)C(=O)c1cc(C)nc2ccccc12`, for which the pIC50 in the series on K562 is 7.13; in the series with KB, 6.91; in the series on HCT-8, 6.87; in the series on MDA-MB-231, 6.66; with HepG2, 6.95.
On the same counts, the results for `COc1ccc(/C=C(\C)C(=O)c2cc(CO)nc3ccccc23)cc1O` are 7.30, 6.64, 6.62, 6.68 and 6.78.
For `COc1ccc(/C=C(\C)C(=O)c2cc(C)nc3ccccc23)cc1N`, the pIC50 in the series on K562 was 7.96; in the series with KB, 7.60; with HCT-8, 7.44; in the series with MDA-MB-231, 7.20; with L02, 6.03; in the series on HepG2, 7.44. In addition, the selectivity ratio in [4] worked out at 25.6.
Turning to `C/C(=C\c1cccc2[nH]ccc12)C(=O)c1cc(C)nc2ccccc12`, the negative logarithm of the IC50 (pIC50) in the series with K562 was under 6.00.
Same read-out and setting: in the case of `COc1ccc(/C=C(\C)C(=O)c2cc(C=O)nc3ccccc23)cc1O` it was 6.96.

The record behind these values is ChEMBL document CHEMBL4330075, “Discovery of Novel Quinoline-Chalcone Derivatives as Potent Antitumor Agents with Microtubule Polymerization Inhibitory Activity” (J Med Chem, 2019).
